Laboratory results taken from patent publication US12648918B2, “Use of parabulin for targeting protozoan tubulin for the inhibition of protozoan replication” (Paul Scherrer Institut, priority 2020, dated 2026).

Experiments:
[1] = system: human fibroblast cells; test: toxicity assay on cultured human fibroblast cells; format: cell-based; details: sub-confluent (proliferating) fibroblasts, 72 hours, 25 μM
Experimental: To assess the potential of parabulin as a bona fide anti-parasitic agent, its effects were evaluated on cultures of human cells and growth of the apicomplexan parasite Toxoplasma gondii within human cells. […] CA4 has well-defined anti-mitotic activity due to its disruption of vertebrate MTs.
FIG. 4(A) depicts a toxicity assay showing the effect of parabulin and CA4 on cultured human fibroblast cells.

[2] = system: T. thermophila; test: turbidity based T. thermophila cell growth inhibition assay; design: species or system Tetrahymena thermophila; details: parabulin 50 μM (FIG. 2D)
Source text: Zoom outs showing differences in the Taxane-, Pironetin—and Colchicine-sites between T. thermophila (light grey) and H. sapiens (wheat) tubulin. The three distinct zones of the Colchicine site are highlighted by colored transparent ovals. Amino acid residue differences between human and protozoa tubulin are indicated. […] FIG. 2(C) represents the chemical structures of CA4 and parabulin. The two CA4 rings, denoted A and B, are highlighted as well as the linker (yellow). FIG. 2(D) is a plot showing the time course of T. thermophila cell growth in the presence of CA4 (20 μM) or parabulin (50 μM; error bars corresponding to the standard deviation of triplicate measurements).
To assess the activity of any putative anti parasitic compound, a turbidity based T. thermophila cell growth inhibition assay was put in place in parallel to the efforts to solve T. thermophila MT and tubulin structures.
(§1) To test if parabulin is able to bind to tubulin, its activity was assessed in vitro on dynamic MTs using our TIRF microscopy reconstitution assay. In contrast to the dynamic periods of growth and shrinkage observed for T. thermophila MTs (FIG. 1C), the addition of parabulin led to a striking reduction in the numbers of growth events (FIG. 3A).

[3] = biological target: T1, T. thermophila MTs (Tt-MT) (Tetrahymena thermophila, UniProt P41351+P41352); test: TIRF microscopy MT dynamics reconstitution assay; format: biochemical
T1 construct: it was decided to isolate tubulin dimers from a protozoa organism; from tissue; host or cells: Tetrahymena thermophila cells (native tubulin isolated from the ciliate)
T1 sequence (P41352 whole entry): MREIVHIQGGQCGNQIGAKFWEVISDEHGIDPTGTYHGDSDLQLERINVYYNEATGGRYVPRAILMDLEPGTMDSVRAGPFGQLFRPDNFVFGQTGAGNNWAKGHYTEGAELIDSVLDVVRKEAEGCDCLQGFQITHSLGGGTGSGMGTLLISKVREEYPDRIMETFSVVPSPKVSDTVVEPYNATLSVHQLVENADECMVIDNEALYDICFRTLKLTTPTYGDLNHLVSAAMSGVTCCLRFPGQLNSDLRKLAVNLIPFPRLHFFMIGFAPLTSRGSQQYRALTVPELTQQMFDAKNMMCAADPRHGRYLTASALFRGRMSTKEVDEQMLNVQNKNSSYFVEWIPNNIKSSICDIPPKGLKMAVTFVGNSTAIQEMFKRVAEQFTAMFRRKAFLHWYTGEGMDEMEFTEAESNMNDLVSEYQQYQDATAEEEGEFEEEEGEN
T1 sequence (P41351 whole entry): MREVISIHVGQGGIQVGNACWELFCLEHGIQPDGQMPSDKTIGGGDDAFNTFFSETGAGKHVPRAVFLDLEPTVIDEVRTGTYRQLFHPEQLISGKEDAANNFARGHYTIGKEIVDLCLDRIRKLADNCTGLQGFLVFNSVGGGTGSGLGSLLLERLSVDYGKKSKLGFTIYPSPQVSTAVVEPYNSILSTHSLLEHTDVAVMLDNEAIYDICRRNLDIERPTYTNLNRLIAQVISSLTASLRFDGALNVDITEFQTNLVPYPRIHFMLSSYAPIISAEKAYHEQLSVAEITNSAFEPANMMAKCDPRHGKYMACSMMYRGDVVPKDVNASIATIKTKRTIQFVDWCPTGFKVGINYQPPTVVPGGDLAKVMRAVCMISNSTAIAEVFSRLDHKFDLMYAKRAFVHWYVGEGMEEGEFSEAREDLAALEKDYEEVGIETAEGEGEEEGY
Source text: FIG. 1(D) is a plot of Tt-MT plus-end growth rates as a function of tubulin concentration. Error bars represent the mean +/−95% CI. […] Left: outside view. The α- and β-tubulin monomers are shown in ribbon representation and colored in dark and light gray, respectively. […] Right: tubulin dimer models fitted into a sliced, transparent and zoomed-in view. The paclitaxel structure in stick representation is highlighted in magenta. Lateral contacts between protofilaments are indicated in blue (H2-S3 in α2 and β2), red (H1-S2 in α2 and β2) and green (M loop in α1 and β1).
as §1
FIG. 3(A) is a plot showing the quantification of the Tt-MT growth events in TIRF microscopy MT dynamics reconstitution assays in the presence of the indicated drugs. Error bars represent the mean +/−95% CI. […] Error bars represent the mean +/−95% CI. […] FIG. 3(C) represents the Tt-MT length in the presence of the indicated drugs (40 μM). Error bars represent the mean +/−95% CI.
The average number of growth events per 10-minute movie decreased from 41.3 to 3.8 even though the number of MT seeds immobilized on the cover slide was similar.

[4] = system: Toxoplasma gondii; test: T. gondii tachyzoite replication; format: cell-based; details: 36 h after addition; controls above 96% eight cell-stage
Experimental: (§2) In order to assess the efficacy of parabulin, T. gondii tachyzoite replication was followed 36 h after addition of parabulin. […] A T. gondii plaque assay was used to determine the concentration at which parasite replication is reduced by half (EC50 value). When confluent fibroblast monolayers were infected with wild-type tachyzoites and left to grow for seven days, lytic parasite growth created visible holes in the vertebrate fibroblast monolayer. Both the plaque numbers and sizes were reduced by parabulin treatment.

[5] = system: Toxoplasma gondii; test: T. gondii plaque assay; format: cell-based; details: seven days
Experimental: as §2

[6] = drugs 40 μM, one-way ANOVA vs DMSO

Row | Structure (SMILES) | cell survival [1] | T. thermophila cell growth [2] | average number of growth events per 10-minute movie ([3]; Tt-MT, control (DMSO) 41.3, similar number of MT seeds) | Tt-MT growth length vs control [3, 6] | Tt-MT growth rate vs control [3, 6] | eight cell-stage parasites (replication) [4] | EC50 ([5]; Toxoplasma gondii, 168 h, confluent fibroblast monolayers, wild-type tachyzoites, read-out: EC50 (plaque area relative to control)) | plaque numbers and sizes [5]
1 | COc1ccc(/C=C\c2cc(OC)c(OC)c(OC)c2)cc1O [CA4, Combretastatin A4, reference compound] | 46% |  |  |  |  |  |  | 
2 | COc1ccc(C=CC(=O)NCc2cc(OC)c(OC)c(OC)c2)cc1OC [parabulin, 3-(3,4-dimethoxyphenyl)-N-[(3,4,5-trimethoxyphenyl)methyl]prop-2-enamide] | 99% | inhibited T. thermophila cell growth | 3.8 | no significant differences | no significant differences | no eight cell-stage observed | 6.5 µM | reduced
